Source: patent publication US8536132B2, “Lymphatic zip codes in tumors and pre-malignant lesions” (Sanford-Burnham Medical Research Institute, priority 2006, dated 2013)
“Also recorded” adds a separate entry of the source. Marks after values point to notes of the source that are not given here. Ends that are not written are not given here. * marks the point of attachment. FITC = O=C1OC2(c3ccc(O)cc3Oc3cc(O)ccc32)c2ccc(NC(=S)*)cc21

Columns and labels:
[1] = test system: TRAMP prostate tumors; experiment: In vivo phage homing to TRAMP prostate tumors; set-up: species or system mouse
Method: (§1) The following cell lines were maintained in DMEM supplemented with 10% FCS: C8161 human melanoma, MDA-MB-435 human breast cancer, KRIB human osteosarcoma, and human prostate cancer cells PPC1, DU145. LNCaP human prostate cancer cell line was grown in RPMI 1640 medium with 10 mM HEPES, 1 mM sodium pyruvate and 1.5 g/L sodium bicarbonate supplemented with 10% FCS. M12 human prostate cancer cell line was cultured in RPMI 1640 with 5 μg/ml insulin-transferrin-sodium selenite (ITS), 2.5 μg/ml fungizone, 50 μg/ml gentamycin, 0.2 μM dexamethasone, 10 ng/ml epidermal growth factor (EGF), and 5% FCS (Bae et al., 1998). To produce tumors, nude BALB/c and C56BL/6 mice were subcutaneously (C8161, KRIB, and PPC1) or orthotopically ([…], PPC1, DU145, M12, and LNCaP) injected with 1×10^6 tumor cells. Transgenic mouse tumor models included TRAMP prostate cancer, MMTV-PyMT breast cancer, and K14-HPV16 cervical cancer. To initiate cervical carcinogenesis, female K14-HPV16 mice (Arbeit et al., 1994) were treated with 17β-estradiol (E2; (Arbeit et al., 1996; Giraudo et al., 2004). Briefly, one-month-old virgin female transgenic (heterozygous K14-HPV16, 1203#1) and nontransgenic (FVB/n) mice were anesthetized with isoflurane, and continuous release pellets that deliver E2 at doses of 0.05 mg over 60 days (Innovative Research of America, Sarasota, Fla., USA) were implanted subcutaneously in the dorsal back skin. Subsequent pellets were implanted at 3 and 5 months of age for a total of 6 months of hormone treatment. K14-HPV16 mice were maintained in the FVB/n background (FVB/n; The Jackson Laboratory). The mice were maintained in accordance with the University of California, San Francisco (UCSF) institutional guidelines governing the care of laboratory mice. The animal experimentation was approved by Animal Research Committees at UCSF or The Burnham Institute.
(§2) In vivo homing specificity of phage was tested as described (Hoffman, 2004). Briefly, mice bearing tumors were anesthetized and intravenously injected with 5×10^9 pfu of phage. After 7 min, the mice were perfused through the heart with PBS containing 0.5% BSA. The tumor and control organs were dissected from each mouse and the phage were rescued and tittered. For histology analysis, the mice were perfused with 4% PFA 30 min after the injection of phage. Tissues were embedded in Tissue-Tek O.C.T. and 5 μm sections were prepared for phage immunostaining.

[2] = test system: cell suspensions prepared from C8161 tumors; experiment: Phage binding to cell suspensions prepared from C8161 tumors; format: cell-based, mouse; conditions: phage clone, ex vivo
[3] = test system: MDA-MB-435 orthotopic xenografts; experiment: In vivo phage homing to MDA-MB-435 orthotopic xenografts; set-up: species or system mouse
Method: as §1, §2

[4] = test system: KRIB xenografts; experiment: In vivo phage homing to KRIB xenografts; set-up: species or system mouse; conditions: for phage homing to KRIB xenografts (in words): i.v. injected phage
Method: as §1, §2

[5] = test system: K14-HPV16 skin cancer; experiment: In vivo homing to K14-HPV16 skin cancer; set-up: species or system mouse
Method: as §1, §2

[6] = test system: KRIB tumors; experiment: Fluorescein-labeled LSD peptide homing to KRIB tumors; format: in vivo, mouse; conditions: fluorescein-labeled peptide i.v.
Method: (§3) The frozen sections were prepared for immunohistological analysis.

[7] = test system: MMTV-PyMT breast tumors; experiment: In vivo phage homing to MMTV-PyMT breast tumors; set-up: species or system mouse
Method: as §1, §2

[8] = test system: C8161 xenografts; experiment: In vivo phage homing to C8161 xenograft tumors; set-up: species or system mouse; conditions: for phage homing to C8161 tumors (in words): i.v. injected phage, C8161 xenograft mice
Method: as §1, §2

[9] = test system: PPC1 orthotopic xenografts; experiment: In vivo phage homing to PPC1 orthotopic xenografts; set-up: species or system mouse
Method: as §1, §2

[10] = biological target: T1, CXCR4 (Homo sapiens, UniProt P61073); experiment: Phage binding to CXCR4-transfected 293T cells
T1 construct: expressed in transfected cells; host or cells: 293T cells, transient transfection with FuGene 6
Method: The 293T cells were transfected with plasmids encoding CXCR4 (Helbig et al., 2003) or VEGFR2 (Borges et al., 2000) using FuGene 6 transfection reagent (Roche Diagnostics, Indianapolis, Ind.). Briefly, plasmid (10 μg) was mixed with 900 μl of serumfree DMEM and 50 μl of FuGene and incubated for 15 min at room temperature before adding the mixture to the cells. The cells were detached using EDTA after 48 hrs post transfection and washed with PBS containing 1% BSA. Phage (5×10^9 pfu) were incubated with the transfected cells and bound phage were rescued and titrated. For competitive binding assay, the cognate peptide (150 μg/ml) or antibody (50 μg/ml) was added during incubating of the phage with cells. Targeted proapoptotic peptide treatment of tumor-bearing mice Prostate cancer model. Orthotopic xenografted prostate tumors were established by injecting 1×10^6 PPC1 human prostate cancer cells into the mouse prostate. Fifteen days post inoculation, the mice were intravenously injected with D(KLAKLAK)2-CREAGRKAC (SEQ ID NO:41), an equimolar mixture of D(KLAKLAK)2 (SEQ ID NO:19) and CREAGRKAC (SEQ ID NO:6), or PBS. Biweekly injections of 100 μg/dose/mouse were given for three weeks. Melanoma model. Nude BALB/c mice were subcutaneously injected with 1×10^6 C8161 human melanoma cells. Treatment started when mean tumor volumes reached about 100 mm3. Mice with size-matched tumors were randomized into three groups. The therapeutic group received a chimera of tumor homing peptide with the proapoptotic motif (D(KLAKLAK)2-CLSDCGKRKC; SEQ ID NO:42). The control groups received an equimolar mixture of CLSDGKRKC (SEQ ID NO:4) and D(KLAKLAK)2 (SEQ ID NO:19), or PBS alone. The tumor-bearing mice were intravenously injected with 200 μg/dose/mouse once a week for three weeks. The mice were monitored for weight loss, and tumors were dissected and weighed at the termination of the experiment. Histological analysis was performed to evaluate the density of tumor lymphatics and blood vessels. The animal experiments reported here were approved by The Burnham Institute Animal Research Committee.

[11] = test system: C8161 tumors; experiment: Tissue distribution of fluorescein-conjugated LSD peptide in C8161 tumor mice; format: in vivo, mouse; set-up: fluorescence in all other tissues except tumors: dose or concentration left out as unconfirmed; conditions: for fluorescent peptide in C8161 tumors and control organs: fluorescein-conjugate peptide i.v., 2 hrs circulation
Method: as §3

[12] = biological target: T2, VEGFR2 (Homo sapiens, UniProt P35968); experiment: Phage binding to VEGFR2-transfected 293T cells
T2 construct: expressed in transfected cells; host or cells: 293T cells, transient transfection with FuGene 6
Method: The 293T cells were transfected with plasmids encoding CXCR4 (Helbig et al., 2003) or VEGFR2 (Borges et al., 2000) using FuGene 6 transfection reagent (Roche Diagnostics, Indianapolis, Ind.). Briefly, plasmid (10 μg) was mixed with 900 μl of serumfree DMEM and 50 μl of FuGene and incubated for 15 min at room temperature before adding the mixture to the cells. The cells were detached using EDTA after 48 hrs post transfection and washed with PBS containing 1% BSA. Phage (5×10^9 pfu) were incubated with the transfected cells and bound phage were rescued and titrated. For competitive binding assay, the cognate peptide (150 μg/ml) or antibody (50 μg/ml) was added during incubating of the phage with cells. Targeted proapoptotic peptide treatment of tumor-bearing mice Prostate cancer model. Orthotopic xenografted prostate tumors were established by injecting 1×10^6 PPC1 human prostate cancer cells into the mouse prostate. Fifteen days post inoculation, the mice were intravenously injected with D(KLAKLAK)2-CREAGRKAC (SEQ ID NO:41), an equimolar mixture of D(KLAKLAK)2 (SEQ ID NO:19) and CREAGRKAC (SEQ ID NO:6), or PBS. Biweekly injections of 100 μg/dose/mouse were given for three weeks. Melanoma model. […] The mice were monitored for weight loss, and tumors were dissected and weighed at the termination of the experiment. […]

[13] = test system: the other tumors, including the skin cancers; experiment: Fluorescein-labeled LSD peptide homing to other tumors; format: in vivo, mouse; conditions: fluorescein-labeled peptide i.v.
Method: as §3

[14] = phage homing in vivo, TRAMP prostate tumors
[15] = phage homing in vivo, MDA-MB-435 orthotopic xenografts
[16] = phage homing in vivo, KRIB xenografts
[17] = phage homing in vivo, K14-HPV16 skin cancer
[18] = phage homing in vivo, MMTV-PyMT breast tumors
[19] = phage homing in vivo, C8161 (s.c.) xenografts
[20] = phage homing in vivo, PPC1 orthotopic xenografts
[21] = fluorescein-conjugate peptide, C8161 tumor sections

T1 sequence (P61073 whole entry, species assumed): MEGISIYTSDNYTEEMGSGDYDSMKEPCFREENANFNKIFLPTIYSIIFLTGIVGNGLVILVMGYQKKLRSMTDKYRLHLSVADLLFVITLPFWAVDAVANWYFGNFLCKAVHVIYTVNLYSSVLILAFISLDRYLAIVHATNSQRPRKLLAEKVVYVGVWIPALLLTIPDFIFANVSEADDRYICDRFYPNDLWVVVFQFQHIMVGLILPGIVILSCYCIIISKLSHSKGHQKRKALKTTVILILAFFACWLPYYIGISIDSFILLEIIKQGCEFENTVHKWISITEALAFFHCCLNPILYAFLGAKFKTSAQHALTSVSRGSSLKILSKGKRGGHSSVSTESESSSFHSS
T2 sequence (P35968 20-1356, species assumed): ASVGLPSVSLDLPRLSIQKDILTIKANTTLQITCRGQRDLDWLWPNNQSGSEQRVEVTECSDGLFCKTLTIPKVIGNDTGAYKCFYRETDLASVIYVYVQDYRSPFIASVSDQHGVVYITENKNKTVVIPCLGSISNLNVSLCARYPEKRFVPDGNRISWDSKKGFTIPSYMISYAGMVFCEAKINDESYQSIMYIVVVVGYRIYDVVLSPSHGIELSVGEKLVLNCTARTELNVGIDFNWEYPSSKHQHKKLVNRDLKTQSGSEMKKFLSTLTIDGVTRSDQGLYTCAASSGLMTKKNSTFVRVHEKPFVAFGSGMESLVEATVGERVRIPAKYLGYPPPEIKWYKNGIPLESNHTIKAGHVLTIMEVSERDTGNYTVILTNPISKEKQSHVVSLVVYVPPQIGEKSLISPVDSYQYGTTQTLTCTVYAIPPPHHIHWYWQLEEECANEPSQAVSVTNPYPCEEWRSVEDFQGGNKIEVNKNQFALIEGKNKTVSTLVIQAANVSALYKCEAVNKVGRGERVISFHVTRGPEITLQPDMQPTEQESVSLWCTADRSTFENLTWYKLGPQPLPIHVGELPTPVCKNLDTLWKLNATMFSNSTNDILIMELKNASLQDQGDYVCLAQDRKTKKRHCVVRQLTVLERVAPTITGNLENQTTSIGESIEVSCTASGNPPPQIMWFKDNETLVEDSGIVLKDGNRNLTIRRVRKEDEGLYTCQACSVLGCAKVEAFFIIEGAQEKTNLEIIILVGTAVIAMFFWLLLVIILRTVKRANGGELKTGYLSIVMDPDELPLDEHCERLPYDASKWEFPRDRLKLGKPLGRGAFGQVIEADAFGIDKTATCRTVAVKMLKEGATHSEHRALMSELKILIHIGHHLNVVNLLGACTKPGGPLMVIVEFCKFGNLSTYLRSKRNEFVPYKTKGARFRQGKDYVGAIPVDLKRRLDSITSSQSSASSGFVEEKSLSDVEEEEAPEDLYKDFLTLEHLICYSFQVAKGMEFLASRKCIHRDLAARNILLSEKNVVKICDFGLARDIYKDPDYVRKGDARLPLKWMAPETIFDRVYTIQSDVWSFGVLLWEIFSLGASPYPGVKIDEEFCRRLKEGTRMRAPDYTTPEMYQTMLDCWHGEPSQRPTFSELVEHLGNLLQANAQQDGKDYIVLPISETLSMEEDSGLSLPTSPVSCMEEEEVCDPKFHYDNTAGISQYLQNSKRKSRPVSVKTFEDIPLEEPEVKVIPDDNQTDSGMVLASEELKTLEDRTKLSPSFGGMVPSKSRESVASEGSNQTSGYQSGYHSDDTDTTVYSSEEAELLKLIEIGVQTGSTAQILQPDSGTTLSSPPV

Substance: CLSDGKRKC [homing peptide for C8161 melanoma lymphatics]
- phage homing to TRAMP prostate tumors (in words) ([1]; i.v. injected phage): did not appreciably home
- Fold over control phage [1, 14]: 1 fold
- Specific Homing [1, 14]: No
- binding to C8161 tumor cell suspensions relative to control phage [2]: 100 fold
- binding to cell suspensions prepared from C8161 tumors (in words) [2]: bound to cell suspensions prepared from C8161 tumors
- phage homing to MDA-MB-435 tumors (in words) ([3]; i.v. injected phage, listed as LSD phage): did not appreciably home
- Fold over control phage [3, 15]: 3 fold
- Specific Homing [3, 15]: No
- phage homing to KRIB xenografts (in words) [4]: slightly positive
- phage homing to KRIB xenografts (in words) ([4]; listed as LSD phage): possible low-level homing
- Fold over control phage [4, 16]: 7^‡ fold
- Specific Homing [4, 16]: Yes
- homing to K14-HPV16 skin cancers (in words) ([5]; i.v. injection, K14-HPV16 mice): possible low-level homing
- Fold over control phage [5, 17]: 5 fold
- Specific Homing [5, 17]: No
- fluorescent peptide homing to KRIB tumors (in words) [6]: slightly positive
- phage homing to MMTV-PyMT breast tumors (in words) ([7]; i.v. injected phage): did not appreciably home
- Fold over control phage [7, 18]: 3 fold
- Specific Homing [7, 18]: No
- phage homing to C8161 tumors (in words) [8]: Robust phage homing
- phage homing to C8161 tumors (in words) ([8]; listed as CLSDGKRKC): homed selectively to the tumors
- phage homing to C8161 tumors (in words) ([8]; listed as LSD phage): significantly higher than in normal tissues
- relative efficiency of tumor homing of the two phage ([8]; i.v. injection, nude mice bearing C8161 tumors): about twice as efficient as CLDGGRPKC
- Fold over control phage [8, 19]: 39 fold
- Specific Homing [8, 19]: Yes
- phage homing to PPC1 orthotopic xenografts (in words) ([9]; i.v. injected phage): did not appreciably home
- Fold over control phage [9, 20]: 3 fold
- Specific Homing [9, 20]: No
- phage binding to CXCR4-transfected 293T cells (in words) ([10]; 293T cells): binds to 293T cells transfected with CXCR4
- phage binding to CXCR4-transfected 293T cells versus mock- or VEGFR2-transfected cells ([10]; 293T cells): 16 fold
- inhibition of LSD phage binding to CXCR4-transfected 293T cells ([10]; peptide 150 μg/ml co-incubated with phage, listed as LSD peptide): inhibits LSD-phage binding; also recorded: inhibited the binding
- fluorescent peptide in C8161 tumors and control organs [11]: detected within the tumors, but not in control organs
- co-localization with blood vessel markers MECA-32 and CD31 [11, 21]: no co-localization
- co-localization with lymphatic vessel markers podoplanin, Prox-1, LYVE-1, VEGFR3 [11, 21]: co-localization of the LSD fluorescence with them
- lymphatic vessels positive for the peptide that were also positive for podoplanin ([11]; fluorescein-conjugate peptide, C8161 tumors): 85%
- phage binding to VEGFR2-transfected 293T cells (in words) [12]: not to cells transfected with VEGFR2

Substance: FITC-LSD: fluorescein-conjugated LSD peptide (CLSDGKRKC) ({FITC}-CLSDGKRKC; cysteine pairing not given here)
- fluorescent peptide homing to KRIB tumors (in words) [6]: weakly positive
- fluorescent peptide homing to the other tumors, including skin cancers [13]: negative
- fluorescence in kidneys ([11]; FITC-LSD (150 mg) i.v., 2 hrs): A few spots of LSD fluorescence
- fluorescence in all other tissues except tumors ([11]; FITC-LSD i.v., 2 hrs): negative
- fluorescent peptide in C8161 tumors and control organs [11]: Strong LSD peptide fluorescence
